The source of these data is ChEMBL document CHEMBL3393028, “Discovery and characterization of MAPK-activated protein kinase-2 prevention of activation inhibitors” (J Med Chem, 2015).

By IC50 is commonly meant the concentration at which inhibition is half-maximal. The fraction unbound is the share of the substance not bound to proteins or other matrix. What is called inhibition is the change of the read-out against control, counted positive when it falls. Lower therefore signals a weak effect. One may read the Kd as the free concentration of one partner at which half of the binding sites on the other are occupied at equilibrium, for simple one-to-one binding. The term Ki denotes the dissociation constant of the complex between target and ligand, obtained from inhibition or displacement. Usually logD stands for lipophilicity at a set pH, counting ionised and neutral species. Read a high logD as a more lipophilic compound.

The target of data set [1] is T1, Mitogen-activated protein kinase 14 (Homo sapiens, UniProt Q16539). The data set can be described thus: Inhibition of p38-alpha (unknown origin) by p38alpha-MBP IoC assay.
In data set [2] the target is T1, Mitogen-activated protein kinase 14. The data set can be described thus: Inhibition of human recombinant 5'-c-myc, His6-tagged p38-alpha using MSK1 as substrate assessed as inhibition of phosphorylation after 60 mins by ELISA in presence of ATP.
Data set [3] shares this target. The data set can be described thus: Inhibition of human recombinant 5'-c-myc, His6-tagged p38-alpha using MK2 (46 to 400) as substrate assessed as inhibition of phosphorylation after 60 mins by ELISA in presence of ATP. In general terms: An ELISA detects its analyte on a solid surface through an enzyme-linked reagent.
The target of data set [4] is Cytochrome P450 3A4 (Homo sapiens, UniProt P08684). The data set can be described thus: Inhibition of CYP3A4 (unknown origin). It is filed as ADME.
Data set [5] addresses T1, Mitogen-activated protein kinase 14. The data set can be described thus: Inhibition of p38-alpha in human TC28 cells assessed as inhibition of IL-1-induced PGE2 production incubated for 20 mins prior to IL-1 challenge measured after 24 hrs by ELISA. The data set is classed as cell-based.
A short description of data set [6]: Intrinsic clearance in rat hepatocytes assessed per 10^6 cells. The data set is classed as ADME, cell-based, Hepatocyte. The note with it: read-out: CLH.
Data set [7] in a line: Thermodynamic solubility of the compound at pH 7.4. The data set is classed as physicochemical. The note with it: buffer, read-out: Therm_solubility.
The nature of data set [8]: Intrinsic clearance in human liver microsomes. The note with it: read-out: CLH. The data set is classed as ADME.
A short description of data set [9]: Fraction unbound in human plasma by equilibrium dialysis method. It is filed as ADME, cell-free. A general note: In equilibrium dialysis free small molecules cross a membrane that holds back macromolecules.
Data set [10] is described as follows: Fraction unbound in rat plasma by equilibrium dialysis method. The data set is classed as ADME, cell-free.
The target in data set [11] is Insulin-like growth factor 1 receptor (Homo sapiens) (UniProt P08069). The settings on record: 10 uM.
Description: Inhibition of IGF1R (unknown origin) at 10 uM
The target of data set [12] is MAP kinase-activated protein kinase 2 (Homo sapiens) (UniProt P49137). The data set can be described thus: Binding affinity to phosphorylated full length 2H,15N-labeled MK2 (unknown origin) expressed in Escherichia coli by 2D-NMR analysis.
Data set [13] has as its target T1, Mitogen-activated protein kinase 14. The data set can be described thus: Inhibition of p38-alpha in human PBMC assessed as inhibition of LPS-induced TNF-alpha production incubated for 30 mins prior to LPS challenge measured after 7 hrs by ELISA.
Data set [14] has the same target. The data set can be described thus: Displacement of 1-[7-[3-[4-(aminomethyl)-1-piperidyl]propoxy]-6-methoxy-quinazolin-4-yl]-3-(2-chloro-6-methylphenyl)urea from GST-tagged phosphorylated p38-alpha (unknown origin) by surface plasmon resonance based ISA method.
Data set [15] shares this target. The data set can be described thus: Competitive inhibition of human recombinant 5'-c-myc, His6-tagged p38-alpha using MK2 (46-400) as substrate.
Data set [16] in a line: Lipophilicity, log D of the compound at pH 7.4. The data set is classed as physicochemical. The note with it: buffer.

SMILES strings stand for the structures. ≈ marks a conversion by molar mass, not a printed value. Calls of active or inactive are those of the source. The rule behind the calls is not given here. Some results are limits rather than exact numbers.

T1 sequence (Q16539 whole entry): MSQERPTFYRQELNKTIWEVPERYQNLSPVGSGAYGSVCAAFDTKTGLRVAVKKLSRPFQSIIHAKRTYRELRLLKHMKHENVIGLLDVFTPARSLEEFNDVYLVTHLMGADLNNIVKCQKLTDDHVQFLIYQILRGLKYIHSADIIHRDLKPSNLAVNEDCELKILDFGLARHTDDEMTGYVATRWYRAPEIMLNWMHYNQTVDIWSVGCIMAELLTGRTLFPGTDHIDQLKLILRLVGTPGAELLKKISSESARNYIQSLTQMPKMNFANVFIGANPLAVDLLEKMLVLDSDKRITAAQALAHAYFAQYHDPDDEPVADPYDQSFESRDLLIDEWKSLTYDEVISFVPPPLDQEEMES
Chain of Cytochrome P450 3A4 (P08684 whole entry): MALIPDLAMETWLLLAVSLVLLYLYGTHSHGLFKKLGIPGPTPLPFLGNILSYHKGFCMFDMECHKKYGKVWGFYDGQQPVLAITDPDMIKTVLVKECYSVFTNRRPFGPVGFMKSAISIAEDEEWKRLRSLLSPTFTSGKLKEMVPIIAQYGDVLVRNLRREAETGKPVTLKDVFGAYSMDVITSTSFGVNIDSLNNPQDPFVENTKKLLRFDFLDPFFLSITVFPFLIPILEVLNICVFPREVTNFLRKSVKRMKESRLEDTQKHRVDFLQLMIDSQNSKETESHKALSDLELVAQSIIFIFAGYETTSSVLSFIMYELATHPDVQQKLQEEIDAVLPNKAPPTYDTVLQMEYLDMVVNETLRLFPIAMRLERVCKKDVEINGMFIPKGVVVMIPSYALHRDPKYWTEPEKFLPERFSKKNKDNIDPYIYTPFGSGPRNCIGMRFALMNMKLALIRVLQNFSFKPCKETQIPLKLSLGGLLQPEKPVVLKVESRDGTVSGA
Chain of MAP kinase-activated protein kinase 2 (Homo sapiens) (P49137 whole entry, looked up): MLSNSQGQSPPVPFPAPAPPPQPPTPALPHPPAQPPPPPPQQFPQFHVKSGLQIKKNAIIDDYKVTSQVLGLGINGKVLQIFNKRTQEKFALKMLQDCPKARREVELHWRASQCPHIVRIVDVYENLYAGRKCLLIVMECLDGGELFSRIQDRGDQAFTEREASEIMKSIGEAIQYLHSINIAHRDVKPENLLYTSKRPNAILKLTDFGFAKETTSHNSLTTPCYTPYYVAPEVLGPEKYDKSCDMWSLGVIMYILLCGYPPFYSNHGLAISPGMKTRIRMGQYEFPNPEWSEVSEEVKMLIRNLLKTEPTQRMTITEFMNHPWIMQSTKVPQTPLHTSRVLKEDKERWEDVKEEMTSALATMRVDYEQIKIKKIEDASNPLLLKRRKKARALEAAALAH
Chain of Insulin-like growth factor 1 receptor (Homo sapiens) (P08069 31-736 limits assumed): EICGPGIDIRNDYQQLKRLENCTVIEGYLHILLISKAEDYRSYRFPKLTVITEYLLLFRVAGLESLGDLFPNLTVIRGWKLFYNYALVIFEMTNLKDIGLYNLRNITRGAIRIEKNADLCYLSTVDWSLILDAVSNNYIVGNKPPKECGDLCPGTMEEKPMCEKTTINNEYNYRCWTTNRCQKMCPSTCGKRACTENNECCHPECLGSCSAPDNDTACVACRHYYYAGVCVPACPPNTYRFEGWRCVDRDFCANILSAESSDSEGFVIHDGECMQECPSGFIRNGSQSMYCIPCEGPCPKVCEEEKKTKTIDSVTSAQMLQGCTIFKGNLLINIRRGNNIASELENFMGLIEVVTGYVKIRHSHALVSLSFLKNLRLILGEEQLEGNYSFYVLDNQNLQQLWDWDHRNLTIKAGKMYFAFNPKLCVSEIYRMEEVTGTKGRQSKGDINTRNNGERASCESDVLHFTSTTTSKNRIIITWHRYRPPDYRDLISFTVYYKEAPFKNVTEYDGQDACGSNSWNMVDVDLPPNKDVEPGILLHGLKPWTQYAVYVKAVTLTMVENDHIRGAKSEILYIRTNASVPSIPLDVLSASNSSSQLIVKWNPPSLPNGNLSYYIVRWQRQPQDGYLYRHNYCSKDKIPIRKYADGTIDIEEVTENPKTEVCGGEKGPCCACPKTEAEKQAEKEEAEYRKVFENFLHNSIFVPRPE
Chain of Insulin-like growth factor 1 receptor (Homo sapiens) (P08069 741-1367 limits assumed): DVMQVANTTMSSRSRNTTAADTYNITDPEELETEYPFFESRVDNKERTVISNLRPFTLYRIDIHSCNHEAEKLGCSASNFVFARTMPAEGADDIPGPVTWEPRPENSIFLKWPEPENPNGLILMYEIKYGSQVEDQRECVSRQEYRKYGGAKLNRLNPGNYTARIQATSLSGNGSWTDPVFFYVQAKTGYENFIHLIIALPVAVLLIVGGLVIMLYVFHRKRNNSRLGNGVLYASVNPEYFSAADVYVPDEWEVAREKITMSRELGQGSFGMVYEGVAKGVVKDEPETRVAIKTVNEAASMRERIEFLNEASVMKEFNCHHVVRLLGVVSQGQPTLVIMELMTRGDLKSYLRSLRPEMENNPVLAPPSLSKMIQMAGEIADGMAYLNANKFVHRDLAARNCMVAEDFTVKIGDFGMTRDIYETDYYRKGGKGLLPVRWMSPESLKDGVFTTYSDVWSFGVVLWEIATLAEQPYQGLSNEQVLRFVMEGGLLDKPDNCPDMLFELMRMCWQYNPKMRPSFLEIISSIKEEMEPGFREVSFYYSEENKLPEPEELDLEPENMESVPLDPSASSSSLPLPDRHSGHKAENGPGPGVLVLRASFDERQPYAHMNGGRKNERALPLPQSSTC

`CCCc1c(C(=O)Nc2cc(S(=O)(=O)N(C)C)ccc2C)cnn1CC(C)C`: the IC50 in [1] is greater than 10000 nM; in data set [2], 5400 nM; in data set [3], 76 nM.

`O=C(NCc1ccncc1)c1ccc(Oc2ccc(F)cc2)cc1`: the IC50 is greater than 10000 nM in data set [1], 2300 nM in [2], 1000 nM in [4] and 2100 nM in data set [3].

In the case of `N#Cc1ccccc1Oc1ccc(C(=O)NCc2cccnc2)cc1`, the IC50 was greater than 10000 nM in data set [1]; 15000 nM in data set [2]; greater than 10000 nM in data set [4]; 4700 nM in data set [5]; 560 nM in [3].

Take `O=C(NCc1ccncc1)c1ccc(Oc2ccc(Cl)cc2)cc1`: the IC50 was greater than 10000 nM in data set [1], 10000 nM in [2], 1000 nM in data set [4] and 2400 nM in [3].

Turning to `N#Cc1ccccc1Oc1ccc(C(=O)NCc2ccncn2)cc1`, the half-maximal inhibitory concentration (IC50) was greater than 10000 nM in [1]; greater than 100000 nM in data set [2]; greater than 10000 nM in data set [4]; 7100 nM in data set [5]; 2800 nM in data set [3]. Besides, the hepatocyte CLint in data set [6] is 23 µL/min/1e6 cells. For the same molecule, the solubility thermodynamic in data set [7] amounted to 360 µM (≈ 119 µg/mL). For the same molecule, the microsomal CLint in data set [8] was less than 2 µL/min/mg. Moreover, the figures for the fraction unbound in data set [9] and in [10] were 0.27 and 0.2, respectively.

`N#Cc1ccccc1Oc1ccc(C(=O)NCc2ccccc2)cc1`: the IC50 in data set [1] was greater than 10000 nM; in data set [2], greater than 100000 nM; in [4] it was greater than 10000 nM; in data set [5], 1400 nM; in data set [3] it was 450 nM.

Take `O=C(NCc1ccncc1)c1ccc(Oc2ccccc2Cl)cc1`: the results for the IC50 in data set [1], in data set [2] and in data set [3] were greater than 10000 nM, 1700 nM and 1700 nM, respectively.

For `CCCc1c(C(=O)Nc2cc(C#N)ccc2C)cnn1-c1ccccc1`, the IC50 in data set [1] was greater than 10000 nM; in data set [2], 890 nM; in [5], 210 nM; in data set [3], 15 nM.

With `CCCc1c(C(=O)Nc2cc(C(=O)OC)ccc2C)cnn1-c1ccccc1`, the IC50 was greater than 10000 nM in data set [1], 500 nM in data set [2] and 490 nM in [3].

Turning to `CCCc1c(C(=O)Nc2cc(O)ccc2C)cnn1-c1ccccc1`, the results for the half-maximal inhibitory concentration (IC50) in data set [1], in [2] and in data set [3] were greater than 10000 nM, less than 46 nM and less than 46 nM, respectively.

In the case of `CCCc1c(C(=O)Nc2cc(S(=O)(=O)N(C)C)ccc2C)cnn1-c1ccccc1`, the inhibition in data set [11] was 30%. Also, the hepatocyte CLint in [6] was determined as 42 µL/min/1e6 cells. Also, the solubility thermodynamic in [7] is 0.55 µM (≈ 0.235 µg/mL). Further, the result in [12] was inactive. The microsomal CLint in [8] is 62 µL/min/mg. Besides, the fraction unbound in [9] was found to be 0.023; in data set [10], 0.031.

As to `CCCc1c(C(=O)Nc2cc(S(C)(=O)=O)ccc2C)cnn1-c1ccccc1`, the IC50 in [1] is greater than 10000 nM; in data set [2] it was 23000 nM; in data set [3], 190 nM.

Turning to `CCCc1c(C(=O)Nc2cc(OCc3ccccc3)ccc2C)cnn1-c1ccccc1`, the half-inhibitory concentration (IC50) is greater than 10000 nM in data set [1], greater than 100000 nM in data set [2] and greater than 100000 nM in data set [3].

Take `Cc1ccccc1Oc1ccc(C(=O)NCc2ccncc2)cc1`: the IC50 in [1] was greater than 10000 nM; in data set [2], 5400 nM; in data set [3], 2000 nM.

In the case of `CCCc1c(C(=O)Nc2cc(S(=O)(=O)N(C)C)ccc2C)cnn1Cc1ccccc1`, the values for the IC50 in data set [1], in data set [2] and in data set [3] were greater than 10000 nM, 6300 nM and 53 nM, respectively.

In data set [11], `N#Cc1ccccc1Oc1ccc(C(=O)NCc2ccncc2)cc1` displayed an inhibition of 30%. In addition, the IC50 in data set [1] is greater than 10000 nM; in data set [13] it was 5400 nM; in [2], 21000 nM; in data set [4] it was 1000 nM; in data set [5] it was 25000 nM; in data set [3], 600 nM. The hepatocyte CLint in [6] was 28 µL/min/1e6 cells. In data set [7], the solubility thermodynamic was 120 µM (≈ 39.5 µg/mL). In [12], the outcome was inactive. In addition, the microsomal CLint in data set [8] was less than 2 µL/min/mg. The Kd in data set [14] was greater than 20000 nM. Moreover, in data set [15], the Ki was 290 nM. The fraction unbound worked out at 0.085 in data set [9] and 0.14 in data set [10].

For `CCCc1c(C(=O)Nc2cc(F)ccc2C)cnn1-c1ccccc1`, the concentration for half-maximal inhibition (IC50) in data set [1] was greater than 10000 nM; in [2], 2500 nM; in [3], 110 nM.

With `CCCc1c(C(=O)Nc2cc(S(=O)(=O)N(C)C)ccc2C)cnn1-c1cccnc1`, the 50% inhibitory concentration (IC50) in data set [1] is greater than 10000 nM; in data set [2] it was greater than 30000 nM; in [3] it was 270 nM. In data set [6], the hepatocyte CLint was found to be 10 µL/min/1e6 cells. Besides, in data set [7], the solubility thermodynamic is 21 µM (≈ 8.98 µg/mL). Further, the logD in [16] was determined as 2.3. Besides, the microsomal CLint in [8] was determined as 143 µL/min/mg. The fraction unbound in data set [9] came out at 0.26; in data set [10], 0.24.

For the molecule `CCCc1c(C(=O)Nc2cc(C(=O)O)ccc2C)cnn1-c1ccccc1`, the IC50 is greater than 10000 nM in [1], 21000 nM in [13], 4200 nM in data set [2] and 86 nM in data set [3].

For `CCCc1c(C(=O)Nc2cc(S(=O)(=O)N(C)C)ccc2C)cnn1-c1ccc(Cl)cc1`, the half-inhibitory concentration (IC50) in data set [1] is greater than 10000 nM; in data set [2] it was 20000 nM; in data set [3], 390 nM.
